Like-named read-outs stand apart in the source and are kept apart here.
How the values were obtained:
[1] = system: HCT116 homozygous MTAP knockout cells; assay: Proliferation assay (CellTiter-Glo, 10 days of treatment), HCT116 MTAP knockout; type: cell-based; conditions: read-out: Proliferation HCT116MTAP_KO IC50
Experimental: (§1) 1. HCT116 MTAP Knockout Model
(§2) HCT116 cells were genetically engineered to knock out the function of both MTAP alleles using a CRISPR/Cas9 system and an sgRNA targeting the MTAP gene. Following Cas9/MTAP sgRNA transduction, clones were screened to confirm that each allele of the MTAP gene had been inactivated (i.e., homozygous MTAP knock out) creating an MTAP-deficient cell.
(§3) Control samples were analyzed in parallel.
Briefly, on Day 0, 250 HCT116 parental or HCT116 homozygous MTAP knockout cell were seeded in 96 well plates in McCoy's 5A supplemented with 10% fetal bovine serum and pen/strep and the cells were incubated overnight at 37° C. plus 5% CO2.
The following day, cells were treated with DMSO vehicle control or a dose response of PRMT5 inhibitors and incubated at 37 C plus 5% CO2 for five days. On Day 6, the cells were trypsinized and split 1:10 into new 96-well plates with fresh medium containing the same concentration of PRMT5 inhibitor and incubated for an additional 5 days at 37° C. plus 5% CO^2.
On Day 11, the viability of the cells was measured using a CTG assay kit (CellTiter-Glo; Promega cat.no G7573) in accordance with the manufacturer's instructions. The IC50 values for each compound after 10 days of treatment were calculated using GraphPad PRISM software.

[2] = system: PRMT5-dependent Symmetric Di-methyl Arginine signal in HCT116 homozygous MTAP knockout cells; assay: SYM11 In-Cell Western, HCT116 MTAP knockout; type: cell-based
Experimental: as §1, §2, §3
Briefly, on Day 0, 2,000 HCT116 parental or HCT116 homozygous MTAP knockout cells were seeded in 96 well plates in McCoy's 5A supplemented with 10% fetal bovine serum and pen/strep and the cells were incubated overnight at 37° C. plus 5% CO2. The following day, cells were treated with DMSO vehicle control or a dose response of PRMT5 inhibitors, and incubated at 37° C. plus 5% CO^2 for four days.
After 4 days of treatment, the cells were fixed by adding 50 μl of 4% paraformaldehyde solution to each well and the cells were incubated for 20 min at room temperature. The paraformaldehyde solution was removed, 150 μl of ice-cold methanol was added and the plate was placed −20° C. for 10 minutes. The methanol was removed, 150 μl of Odyssey Blocking buffer+0.05% Tween20 was added and the plate was incubated at room temperature with shaking for one hour.
The primary SYM11 antibody solution was removed by aspiration and the wells were washed three consecutive times with phosphate buffered saline containing 0.1% Tween-20 (PBST).
The secondary antibody solution was removed by aspiration and the wells were washed three consecutive times with PB ST.
The SYM11 signal and the DRAQ5 signal were quantified using a Li-Cor Odyssey machine reading at […], respectively. The SYM11/DRAQ5 ratio was used to calculate the inhibition of Symmetric Dimethyl Arginine as percent of DMSO control.

[3] = target: T1, PRMT5/MEP50 complex (Homo sapiens (Human), UniProt O14744); assay: PRMT5:MEP50 FlashPlate Assay (histone H4 peptide substrate, plus and minus MTA); type: biochemical
T1 sequence (O14744 2-637): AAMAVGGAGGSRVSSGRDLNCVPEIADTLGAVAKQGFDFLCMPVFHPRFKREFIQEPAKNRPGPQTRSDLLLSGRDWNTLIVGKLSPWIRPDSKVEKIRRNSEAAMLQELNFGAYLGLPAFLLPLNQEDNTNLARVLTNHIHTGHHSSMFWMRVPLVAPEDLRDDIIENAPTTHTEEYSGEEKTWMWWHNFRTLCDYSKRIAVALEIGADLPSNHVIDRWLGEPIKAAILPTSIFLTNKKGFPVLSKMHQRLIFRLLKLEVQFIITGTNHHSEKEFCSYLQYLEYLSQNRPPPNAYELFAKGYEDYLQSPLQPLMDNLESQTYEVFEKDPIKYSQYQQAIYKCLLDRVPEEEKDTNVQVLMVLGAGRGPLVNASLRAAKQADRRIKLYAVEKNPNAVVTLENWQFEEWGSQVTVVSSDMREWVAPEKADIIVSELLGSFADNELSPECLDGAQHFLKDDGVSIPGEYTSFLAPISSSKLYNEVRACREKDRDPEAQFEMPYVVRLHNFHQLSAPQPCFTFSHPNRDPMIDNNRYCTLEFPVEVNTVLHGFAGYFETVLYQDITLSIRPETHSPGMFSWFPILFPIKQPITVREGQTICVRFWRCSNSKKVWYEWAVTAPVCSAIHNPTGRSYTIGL
T1 sequence (Q9BQA1 2-342 partner): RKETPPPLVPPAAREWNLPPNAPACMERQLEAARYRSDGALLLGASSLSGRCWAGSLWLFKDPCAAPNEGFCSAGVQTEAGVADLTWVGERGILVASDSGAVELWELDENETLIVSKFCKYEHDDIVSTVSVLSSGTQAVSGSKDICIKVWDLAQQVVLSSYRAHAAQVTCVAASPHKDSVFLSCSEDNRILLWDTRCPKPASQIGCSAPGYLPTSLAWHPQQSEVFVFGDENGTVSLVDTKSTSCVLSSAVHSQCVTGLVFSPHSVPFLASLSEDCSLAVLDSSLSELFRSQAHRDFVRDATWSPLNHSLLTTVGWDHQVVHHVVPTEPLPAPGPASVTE
Experimental: (§4) The PRMT5 inhibitory activity of compounds of the present invention was determined using either a PRMT5:MEP50 FlashPlate Assay (Reaction Biology Corporation) or a PRMT5:MEP50 HotSpot Assay (Reaction Biology Corporation).
1. PRMT5:MEP50 FlashPlate Assay

[4] = target: T1, PRMT5/MEP50 complex; assay: PRMT5:MEP50 HotSpot Assay (full-length histone H2A substrate, plus and minus MTA); type: biochemical
Experimental: as §4
The assay uses recombinant full-length histone H2A as the PRMT5 substrate. […] The reaction was stopped and transferred to filter paper for detection. The amount of tritiated H2A in each sample was determined using a scintillation counter.

[5] = HCT116 homozygous MTAP knockout cells, 4 days of treatment, SYM11/DRAQ5 ratio; read-out: In-cell-Western (SYM11) HCT116 MTAP_KO IC50
[6] = Homo sapiens, HCT-116, 96 h, HCT116 homozygous MTAP knockout cells, 4 days of treatment, SYM11/DRAQ5 ratio; read-out: In-cell-Western (SYM11) HCT116 MTAP_KO IC50
[7] = read-out: In-cell-Western (SYM11) HCT116 MTAP_KO IC50; HCT116 homozygous MTAP knockout cells, 4 days of treatment, SYM11/DRAQ5 ratio
[8] = IC50 + 2 μM MTA (nM), in the presence of 2 μM MTA
[9] = in the absence of MTA, read-out: IC50
[10] = IC50 + 2 μM MTA, in the presence of 2 μM MTA

| SMILES | IC50 [2, 6] [nM] | IC50 ([1]; Homo sapiens, HCT-116, 240 h) [nM] | other results |
| --- | --- | --- | --- |
| CC(N)c1n[nH]c(=O)c2ccc(-c3cnn(C)c3-c3ccc4ccccc4c3C#N)cc12 (single isomer, unassigned) [Example 9-4, 2-[4-[4-(1-aminoethyl)-1-oxo-2H-phthalazin-6-yl]-2-methyl-pyrazol-3-yl]naphthalene-1-carbonitrile] |  |  | IC50 [1]: 4180 nM; IC50 [2, 5]: > 1000 nM |
| CCOc1cc(-c2cnn(C)c2-c2c(F)cc3ccccc3c2C#N)cc2c(CN)n[nH]c(=O)c12 (single isomer, unassigned) [Example 16-4, 2-[4-[4-(aminomethyl)-8-ethoxy-1-oxo-2H-phthalazin-6-yl]-2-methyl-pyrazol-3-yl]-3-fluoro-naphthalene-1-carbonitrile] |  |  | IC50 [1]: 15 nM; IC50 [2, 5]: 12 nM |
| Cn1ncc(-c2ccc3c(=O)[nH]nc(CN)c3c2)c1-c1c(F)c(Cl)cc(OC2CC2)c1C#N (single isomer, unassigned) [Example 16-7, 2-(4-(4-(aminomethyl)-1-oxo-1,2-dihydrophthalazin-6-yl)-1-methyl-1H-pyrazol-5-yl)-4-chloro-6-cyclopropoxy-3-fluorobenzonitrile] |  |  | IC50 [1]: 4000 nM; IC50 [2, 7]: 1000 nM |
| Cn1ncc(-c2ccc3c(=O)[nH]nc(CN)c3c2)c1-c1c(F)c(Cl)cc(OC2CC2)c1C#N (single isomer, unassigned) [Example 16-8, 2-(4-(4-(aminomethyl)-1-oxo-1,2-dihydrophthalazin-6-yl)-1-methyl-1H-pyrazol-5-yl)-4-chloro-6-cyclopropoxy-3-fluorobenzonitrile] |  |  | IC50 [1]: 24 nM; IC50 [2, 7]: 0.8 nM |
| Cn1ncc(-c2ccc3c(=O)[nH]nc(CN)c3c2)c1-c1ccc(Cl)cc1 [Example 4-96, 4-(aminomethyl)-6-(5-(4-chlorophenyl)-1-methyl-1H-pyrazol-4-yl)phthalazin-1(2H)-one] |  |  | IC50 [3, 8]: 3.9 nM; IC50 [3, 9]: 116 nM; IC50 [4, 10]: 868 nM; IC50 [4, 9]: > 10000 nM |
| COc1ccc(-c2c(-c3ccc4c(=O)[nH]nc(CN)c4c3)cnn2C)cc1 [Example 4-98, 4-(aminomethyl)-6-(5-(4-methoxyphenyl)-1-methyl-1H-pyrazol-4-yl)phthalazin-1(2H)-one] |  |  | IC50 [3, 8]: 2.1 nM; IC50 [3, 9]: 90 nM; IC50 [4, 10]: 635 nM |
| Cn1ncc(-c2ccc3c(=O)[nH]nc(CN)c3c2)c1-c1cnn(Cc2ccccc2)c1C#N [Example 4-211, 4-(4-(aminomethyl)-1-oxo-1,2-dihydrophthalazin-6-yl)-1′-benzyl-2-methyl-1′H,2H-[3,4′-bipyrazole]-5′-carbonitrile] | 197 | 2150 |  |
| Cn1ncc(-c2ccc3c(=O)[nH]nc(CN)c3c2)c1-c1cn(Cc2ccccc2)nc1C#N [Example 4-212, 4-(4-(aminomethyl)-1-oxo-1,2-dihydrophthalazin-6-yl)-1′-benzyl-2-methyl-1′H,2H-[3,4′-bipyrazole]-3′-carbonitrile] | > 10000 | > 10000 |  |
| Cn1ncc(-c2ccc3c(=O)[nH]nc(CN)c3c2)c1-c1cn(-c2ccccc2)nc1C#N [Example 4-214, 4-(4-(aminomethyl)-1-oxo-1,2-dihydrophthalazin-6-yl)-2-methyl-11-phenyl-1′H,2H-[3,4′-bipyrazole]-3′-carbonitrile] | > 10000 | 4400 |  |
| Cn1nc(Cl)c(-c2c(-c3ccc4c(=O)[nH]nc(CN)c4c3)cnn2C)c1C#N [Example 4-219, 4-(4-(aminomethyl)-1-oxo-1,2-dihydrophthalazin-6-yl)-3′-chloro-1′,2-dimethyl-1′H,2H-[3,4′-bipyrazole]-5′-carbonitrile] | > 1000 | 3610 |  |
| Cn1ncc(-c2ccc3c(=O)[nH]nc(CN)c3c2)c1-c1cc2ccccn2c1C#N [Example 4-227, 2-(4-(4-(aminomethyl)-1-oxo-1,2-dihydrophthalazin-6-yl)-1-methyl-1H-pyrazol-5-yl)indolizine-3-carbonitrile] | > 1000 | 2370 |  |
| N#Cc1c(-c2sncc2-c2ccc3c(=O)[nH]nc(CN)c3c2)ccc2ccccc12 [Example 4-228, 2-(4-(4-(aminomethyl)-1-oxo-1,2-dihydrophthalazin-6-yl)isothiazol-5-yl)-1-naphthonitrile] | > 1000 | > 10000 |  |
| Cn1ncc(-c2ccc3c(=O)[nH]nc(CN)c3c2)c1-c1cccc2cncn12 [Example 4-233, 4-(aminomethyl)-6-(5-(imidazo[1,5-a]pyridin-5-yl)-1-methyl-1H-pyrazol-4-yl)phthalazin-1(2H)-one] | > 1000 | 4730 |  |

Now from value to compound, other results behind:

| IC50 [2, 6] [nM] | IC50 ([1]; Homo sapiens, HCT-116, 240 h) [nM] | SMILES | other results |
| --- | --- | --- | --- |
| 15 |  | CCOc1cc(-c2cnn(C)c2-c2c(F)cc3ccccc3c2C#N)cc2c(CN)n[nH]c(=O)c12 (single isomer, unassigned) [Example 16-3, 2-[4-[4-(aminomethyl)-8-ethoxy-1-oxo-2H-phthalazin-6-yl]-2-methyl-pyrazol-3-yl]-3-fluoro-naphthalene-1-carbonitrile] | IC50 [1]: 84 nM |
| 11 | 124 | Cn1ncc(-c2ccc3c(=O)[nH]nc(CN)c3c2)c1-c1ccc(Cl)c(OC2CC2)c1C#N [Example 4-208, 6-(4-(4-(aminomethyl)-1-oxo-1,2-dihydrophthalazin-6-yl)-1-methyl-1H-pyrazol-5-yl)-3-chloro-2-cyclopropoxybenzonitrile] |  |
| 88 | 1680 | Cn1ncc(-c2ccc3c(=O)[nH]nc(CN)c3c2)c1-c1cn(-c2ccccc2)nc1Cl [Example 4-213, 4-(aminomethyl)-6-(3′-chloro-2-methyl-1′-phenyl-1′H,2H-[3,4′-bipyrazol]-4-yl)phthalazin-1(2H)-one] |  |
| 83 | 134 | Cn1ncc(-c2ccc3c(=O)[nH]nc(CN)c3c2)c1-c1ccc2cc(F)ccc2c1C#N [Example 4-216, 2-(4-(4-(aminomethyl)-1-oxo-1,2-dihydrophthalazin-6-yl)-1-methyl-1H-pyrazol-5-yl)-6-fluoro-1-naphthonitrile] |  |
| 140 | 134 | Cn1ncc(-c2ccc3c(=O)[nH]nc(CN)c3c2)c1-c1cc2ccccc2c(Cl)c1C#N [Example 4-218, 3-(4-(4-(aminomethyl)-1-oxo-1,2-dihydrophthalazin-6-yl)-1-methyl-1H-pyrazol-5-yl)-1-chloro-2-naphthonitrile] |  |
| 10 | 191 | Cn1ncc(-c2ccc3c(=O)[nH]nc(CN)c3c2)c1-c1ccc2c(c1C#N)OCCC2 [Example 4-226, 7-(4-(4-(aminomethyl)-1-oxo-1,2-dihydrophthalazin-6-yl)-1-methyl-1H-pyrazol-5-yl)chromane-8-carbonitrile] |  |
| 148 | 4770 | Cn1ncc(-c2ccc3c(=O)[nH]nc(CN)c3c2)c1-c1cn(Cc2ccccc2C#N)nc1Cl [Example 4-232, 2-((4-(4-(aminomethyl)-1-oxo-1,2-dihydrophthalazin-6-yl)-3′-chloro-2-methyl-1′H,2H-[3,4′-bipyrazol]-1′-yl)methyl)benzonitrile] |  |
| 129 | 206 | Cn1ncc(-c2ccc3c(=O)[nH]nc(CN)c3c2)c1-c1ccc2cccc(F)c2c1C#N [Example 4-234, 2-(4-(4-(aminomethyl)-1-oxo-1,2-dihydrophthalazin-6-yl)-1-methyl-1H-pyrazol-5-yl)-8-fluoro-1-naphthonitrile] |  |

From patent US11479551B2, “MTA-cooperative PRMT5 inhibitors” (Mirati Therapeutics, Inc., priority 2019, dated 2022)
